{"source": "ChEMBL document CHEMBL1201862", "about": "“PubChem BioAssay data set” (2004)", "key": {"[1]": {"biological_target": "Peroxisome proliferator-activated receptor gamma/Nuclear receptor coactivator 1 (Homo sapiens, UniProt P37231)", "assay_type": "functional"}, "[2]": {"biological_target": "Peroxisome proliferator-activated receptor gamma/Nuclear receptor coactivator 2 (Homo sapiens, UniProt P37231)", "sequence (P37231 whole entry)": "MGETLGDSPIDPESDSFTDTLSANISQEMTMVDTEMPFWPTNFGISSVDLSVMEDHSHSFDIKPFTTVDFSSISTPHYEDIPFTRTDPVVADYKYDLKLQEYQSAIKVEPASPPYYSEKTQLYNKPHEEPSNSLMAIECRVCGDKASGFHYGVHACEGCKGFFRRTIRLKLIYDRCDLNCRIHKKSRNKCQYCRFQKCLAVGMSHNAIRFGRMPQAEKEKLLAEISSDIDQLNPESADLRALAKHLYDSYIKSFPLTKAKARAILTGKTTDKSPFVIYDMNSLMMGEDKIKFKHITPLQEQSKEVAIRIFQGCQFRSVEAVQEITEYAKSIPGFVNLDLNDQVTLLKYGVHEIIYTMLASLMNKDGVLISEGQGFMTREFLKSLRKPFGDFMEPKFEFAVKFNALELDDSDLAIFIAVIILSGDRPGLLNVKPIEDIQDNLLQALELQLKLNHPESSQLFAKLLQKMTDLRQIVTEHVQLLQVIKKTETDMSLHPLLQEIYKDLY", "sequence (Q15596 whole entry, further chain)": "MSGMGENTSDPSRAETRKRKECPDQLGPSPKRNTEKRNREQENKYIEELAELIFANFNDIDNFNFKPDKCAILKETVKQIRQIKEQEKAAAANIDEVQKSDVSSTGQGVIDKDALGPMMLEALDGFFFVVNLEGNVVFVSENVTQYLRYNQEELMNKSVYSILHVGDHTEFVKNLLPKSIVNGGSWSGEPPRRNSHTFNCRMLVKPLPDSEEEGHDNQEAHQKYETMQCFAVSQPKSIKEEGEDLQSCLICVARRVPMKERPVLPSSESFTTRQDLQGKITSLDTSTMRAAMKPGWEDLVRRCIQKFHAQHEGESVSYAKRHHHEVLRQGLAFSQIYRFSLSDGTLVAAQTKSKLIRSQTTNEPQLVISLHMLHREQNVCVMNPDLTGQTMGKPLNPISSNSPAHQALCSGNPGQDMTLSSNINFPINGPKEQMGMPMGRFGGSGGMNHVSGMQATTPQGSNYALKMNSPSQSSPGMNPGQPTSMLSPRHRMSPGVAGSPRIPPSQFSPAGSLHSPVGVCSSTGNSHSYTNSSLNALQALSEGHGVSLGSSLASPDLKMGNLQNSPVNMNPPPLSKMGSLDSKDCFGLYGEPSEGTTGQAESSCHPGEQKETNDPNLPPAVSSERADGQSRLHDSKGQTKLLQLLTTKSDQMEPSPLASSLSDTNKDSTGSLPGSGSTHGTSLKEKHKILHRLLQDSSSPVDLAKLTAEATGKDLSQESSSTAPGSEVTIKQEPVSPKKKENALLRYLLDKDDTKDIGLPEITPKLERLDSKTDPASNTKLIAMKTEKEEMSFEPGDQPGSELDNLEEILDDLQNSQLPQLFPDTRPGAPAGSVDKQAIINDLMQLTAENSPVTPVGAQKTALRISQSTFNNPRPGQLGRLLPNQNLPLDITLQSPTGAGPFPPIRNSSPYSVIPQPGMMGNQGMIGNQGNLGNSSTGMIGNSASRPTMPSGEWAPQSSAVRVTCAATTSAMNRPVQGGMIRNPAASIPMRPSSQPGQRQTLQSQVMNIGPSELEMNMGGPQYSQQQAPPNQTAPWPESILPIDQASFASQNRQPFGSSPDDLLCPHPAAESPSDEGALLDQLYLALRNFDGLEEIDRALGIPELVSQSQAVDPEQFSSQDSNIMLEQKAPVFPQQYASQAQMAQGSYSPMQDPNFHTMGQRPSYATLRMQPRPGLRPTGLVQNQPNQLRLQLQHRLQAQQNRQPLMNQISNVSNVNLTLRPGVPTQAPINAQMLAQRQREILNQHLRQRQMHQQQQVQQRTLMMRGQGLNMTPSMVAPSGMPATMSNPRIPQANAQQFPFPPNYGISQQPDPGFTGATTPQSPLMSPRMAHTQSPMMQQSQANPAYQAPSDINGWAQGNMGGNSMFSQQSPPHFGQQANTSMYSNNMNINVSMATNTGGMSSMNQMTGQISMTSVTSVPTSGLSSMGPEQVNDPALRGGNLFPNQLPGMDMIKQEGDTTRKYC", "assay_type": "functional"}, "[3]": {"biological_target": "Peroxisome proliferator-activated receptor gamma/Nuclear receptor coactivator 3 (Homo sapiens, UniProt P37231)", "sequence (P37231 whole entry)": "as the sequence (P37231 whole entry) above", "sequence (Q9Y6Q9 whole entry, further chain)": "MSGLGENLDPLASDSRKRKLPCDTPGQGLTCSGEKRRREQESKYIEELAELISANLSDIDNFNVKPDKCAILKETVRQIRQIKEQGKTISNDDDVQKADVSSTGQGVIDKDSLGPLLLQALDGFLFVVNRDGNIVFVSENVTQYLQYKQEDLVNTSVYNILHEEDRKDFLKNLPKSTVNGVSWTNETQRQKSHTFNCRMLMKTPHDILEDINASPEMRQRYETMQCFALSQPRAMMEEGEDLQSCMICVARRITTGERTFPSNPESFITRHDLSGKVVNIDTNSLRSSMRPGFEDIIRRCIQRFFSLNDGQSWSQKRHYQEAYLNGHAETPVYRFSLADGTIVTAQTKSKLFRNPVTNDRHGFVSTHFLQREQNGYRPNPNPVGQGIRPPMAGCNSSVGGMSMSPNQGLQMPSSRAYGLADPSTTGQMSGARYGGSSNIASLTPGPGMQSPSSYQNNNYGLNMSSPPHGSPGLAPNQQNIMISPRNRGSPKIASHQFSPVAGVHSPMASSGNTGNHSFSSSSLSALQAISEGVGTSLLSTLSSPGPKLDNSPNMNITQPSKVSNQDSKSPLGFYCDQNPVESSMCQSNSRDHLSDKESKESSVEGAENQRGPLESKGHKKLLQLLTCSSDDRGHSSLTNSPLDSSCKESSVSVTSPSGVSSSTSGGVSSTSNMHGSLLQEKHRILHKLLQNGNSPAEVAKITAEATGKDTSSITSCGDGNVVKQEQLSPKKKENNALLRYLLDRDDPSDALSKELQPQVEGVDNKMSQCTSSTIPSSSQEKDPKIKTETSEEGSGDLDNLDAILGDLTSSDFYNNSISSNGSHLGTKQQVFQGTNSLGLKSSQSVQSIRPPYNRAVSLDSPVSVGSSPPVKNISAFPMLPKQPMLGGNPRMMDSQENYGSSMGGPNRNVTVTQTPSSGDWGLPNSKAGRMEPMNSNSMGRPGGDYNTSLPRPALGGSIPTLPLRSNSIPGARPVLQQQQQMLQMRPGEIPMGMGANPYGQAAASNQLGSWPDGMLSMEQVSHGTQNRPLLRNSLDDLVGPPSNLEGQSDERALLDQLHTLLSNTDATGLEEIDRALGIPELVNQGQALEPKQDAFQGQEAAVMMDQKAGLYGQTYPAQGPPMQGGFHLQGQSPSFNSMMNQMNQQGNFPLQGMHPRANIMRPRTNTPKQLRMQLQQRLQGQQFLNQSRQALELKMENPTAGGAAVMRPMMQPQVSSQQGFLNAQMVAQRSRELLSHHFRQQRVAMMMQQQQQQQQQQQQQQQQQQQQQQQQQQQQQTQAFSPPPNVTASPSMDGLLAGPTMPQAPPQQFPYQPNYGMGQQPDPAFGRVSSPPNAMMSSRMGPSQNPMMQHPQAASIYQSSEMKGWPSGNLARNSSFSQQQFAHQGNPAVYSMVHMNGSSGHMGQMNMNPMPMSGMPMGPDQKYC", "assay_type": "functional"}, "[4]": {"biological_target": "Luciferin 4-monooxygenase (Photinus pyralis, UniProt P08659)", "sequence (P08659 whole entry)": "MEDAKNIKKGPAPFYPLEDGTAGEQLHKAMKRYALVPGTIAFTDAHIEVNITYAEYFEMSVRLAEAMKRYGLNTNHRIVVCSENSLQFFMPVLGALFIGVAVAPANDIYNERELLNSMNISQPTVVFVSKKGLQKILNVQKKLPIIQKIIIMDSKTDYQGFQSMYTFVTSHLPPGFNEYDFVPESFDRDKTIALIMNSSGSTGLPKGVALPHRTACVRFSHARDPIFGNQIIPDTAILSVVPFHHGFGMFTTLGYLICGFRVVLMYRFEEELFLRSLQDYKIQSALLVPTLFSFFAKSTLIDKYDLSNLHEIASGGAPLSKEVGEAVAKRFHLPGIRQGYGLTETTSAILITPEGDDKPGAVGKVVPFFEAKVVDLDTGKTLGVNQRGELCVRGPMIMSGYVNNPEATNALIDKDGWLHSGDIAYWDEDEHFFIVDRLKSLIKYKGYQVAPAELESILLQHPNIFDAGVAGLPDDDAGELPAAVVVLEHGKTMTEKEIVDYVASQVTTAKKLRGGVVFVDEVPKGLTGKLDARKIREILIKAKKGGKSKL", "assay": "Counter Screen for Luciferase-based Assay Positives. [Related pubchem assays: 620, 618, 411 ]"}, "HT-1080": {"tested_on": "HT-1080", "assay": "HT1080 cell viability loss – fluorescence readout (AID 620)", "assay_type": "functional, cell-based", "conditions": "Homo sapiens"}, "[5]": {"biological_target": "T1, Neuropeptide Y receptor type 1 (Homo sapiens, UniProt P25929)", "T1 sequence (P25929 whole entry)": "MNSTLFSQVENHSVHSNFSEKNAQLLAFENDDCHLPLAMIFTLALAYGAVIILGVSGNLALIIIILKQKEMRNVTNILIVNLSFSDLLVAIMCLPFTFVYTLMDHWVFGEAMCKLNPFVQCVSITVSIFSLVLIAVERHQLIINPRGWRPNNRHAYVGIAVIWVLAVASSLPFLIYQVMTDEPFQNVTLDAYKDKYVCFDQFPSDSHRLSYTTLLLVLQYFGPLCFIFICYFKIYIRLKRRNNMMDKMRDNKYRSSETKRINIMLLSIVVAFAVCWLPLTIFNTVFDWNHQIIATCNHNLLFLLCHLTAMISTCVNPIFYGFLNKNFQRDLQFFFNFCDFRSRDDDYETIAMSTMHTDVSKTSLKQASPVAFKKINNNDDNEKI", "assay_type": "functional"}, "[6]": {"biological_target": "T2, Neuropeptide Y receptor type 2 (Homo sapiens, UniProt P49146)", "T2 sequence (P49146 whole entry)": "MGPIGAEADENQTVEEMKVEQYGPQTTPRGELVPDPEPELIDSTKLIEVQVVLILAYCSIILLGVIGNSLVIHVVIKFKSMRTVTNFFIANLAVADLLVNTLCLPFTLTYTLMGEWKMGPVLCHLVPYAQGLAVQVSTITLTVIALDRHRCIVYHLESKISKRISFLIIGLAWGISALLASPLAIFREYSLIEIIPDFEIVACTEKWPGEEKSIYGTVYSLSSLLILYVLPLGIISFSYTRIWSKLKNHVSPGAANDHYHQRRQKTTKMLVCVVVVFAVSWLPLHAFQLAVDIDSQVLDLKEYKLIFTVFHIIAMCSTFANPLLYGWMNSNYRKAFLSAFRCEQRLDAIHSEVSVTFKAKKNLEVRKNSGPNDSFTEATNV", "assay_type": "functional, cell-based"}, "Leucine aminopeptidase": {"biological_target": "T3, Leucine aminopeptidase (Plasmodium falciparum 3D7, UniProt Q8IL11)", "T3 sequence (Q8IL11 whole entry)": "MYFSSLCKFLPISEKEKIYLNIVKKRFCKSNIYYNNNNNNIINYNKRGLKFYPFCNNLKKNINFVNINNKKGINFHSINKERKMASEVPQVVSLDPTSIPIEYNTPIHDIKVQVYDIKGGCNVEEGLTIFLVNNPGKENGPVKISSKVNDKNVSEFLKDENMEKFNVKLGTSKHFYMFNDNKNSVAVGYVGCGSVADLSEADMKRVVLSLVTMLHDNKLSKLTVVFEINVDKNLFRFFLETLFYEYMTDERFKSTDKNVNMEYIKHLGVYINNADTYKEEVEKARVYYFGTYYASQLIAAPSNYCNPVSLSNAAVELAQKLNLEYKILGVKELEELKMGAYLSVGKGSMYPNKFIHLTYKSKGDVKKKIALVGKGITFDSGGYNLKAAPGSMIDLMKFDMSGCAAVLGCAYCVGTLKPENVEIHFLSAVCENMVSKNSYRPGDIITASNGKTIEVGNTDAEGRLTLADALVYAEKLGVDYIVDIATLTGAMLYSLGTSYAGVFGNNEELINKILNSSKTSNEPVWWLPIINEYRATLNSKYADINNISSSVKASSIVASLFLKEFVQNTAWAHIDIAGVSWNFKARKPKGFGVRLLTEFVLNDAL", "assay": "P. falciparum M17LAP inhibitors, primary screen, biochemical, fluorogenic H-Leu-NHMec substrate, 1536-well (AID 1619)", "assay_type": "functional"}, "[7]": {"assay": "luciferase reporter signal reduction – luminescence, H4-C neuroglioblastoma cells, dose response (AID 2458);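 note: H4 neuroglioblastoma cells stably carrying a luciferase reporter gene fusion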", "assay_type": "functional, cell-based"}, "[8]": {"assay": "alpha-synuclein stem-loop luciferase translation blockers – H4 neuroglioma cells, luminescence, confirmation (AID 1988)", "assay_type": "functional, cell-based"}, "cells": {"assay": "cells", "assay_type": "functional, cell-based"}, "[9]": {"assay": "viability loss in HEK293 cells – cell-based, plate reader, cherry-picked samples, cytotoxicity control, dose response (AID 743446)", "assay_type": "functional"}, "[10]": {"assay": "toxicity toward HepG2 liver cells – cell-based, plate reader, cherry-pick, antagonist series, cytotoxicity control, dose response (AID 743416)", "assay_type": "functional"}, "[11]": {"assay": "non-specific 3'UTR reporter inhibition in Clone20-Shn3RL – cell-based, Renilla luciferase, cherry-picked, counter-screen for Shn3 inhibitor project, dose response (AID 624133)", "assay_type": "functional"}, "[12]": {"assay": "reduction of Shn3 3'UTR-driven luciferase in osteoblasts – cell-based, Clone20 osteoblasts, firefly luciferase, cherry-picked, dose response (AID 624132)", "assay_type": "functional"}, "[13]": {"biological_target": "T4, Heat shock factor protein 1 (Mus musculus, UniProt P38532)", "T4 sequence (P38532 whole entry)": "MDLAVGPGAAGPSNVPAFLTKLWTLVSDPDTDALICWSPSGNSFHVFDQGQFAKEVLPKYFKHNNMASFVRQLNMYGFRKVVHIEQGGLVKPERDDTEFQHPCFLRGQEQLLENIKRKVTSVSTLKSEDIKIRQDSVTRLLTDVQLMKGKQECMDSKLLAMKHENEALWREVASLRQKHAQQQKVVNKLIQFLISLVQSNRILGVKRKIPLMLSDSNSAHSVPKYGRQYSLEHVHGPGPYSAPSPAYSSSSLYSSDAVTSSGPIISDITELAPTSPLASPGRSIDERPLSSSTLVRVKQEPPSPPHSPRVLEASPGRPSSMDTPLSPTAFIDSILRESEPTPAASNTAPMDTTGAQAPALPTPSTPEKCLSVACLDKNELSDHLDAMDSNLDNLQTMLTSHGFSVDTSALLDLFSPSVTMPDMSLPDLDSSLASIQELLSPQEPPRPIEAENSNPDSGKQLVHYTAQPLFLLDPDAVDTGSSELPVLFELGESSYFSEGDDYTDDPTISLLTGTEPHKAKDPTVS", "assay": "decrease of HSF1-responsive luciferase luminescence – cell-based, NIH3T3, dose retest, confirmation (AID 2382);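 note: NIH3T3 fibroblasts with HSF1-driven luciferase reporter stressed by proteasome inhibitor MG132; luminescence from HSF1-driven luciferase expression after 8 hours of MG132 stress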", "assay_type": "functional"}, "BJ": {"tested_on": "BJ", "assay": "growth inhibition of engineered Ras-driven BJ cells – cell-based, alamar blue fluorescence, cherrypicked samples, dose response (AID 2631);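 note: confirmatory dose-response assay in RAS-dependent BJ fibroblasts engineered with TERT, LT and ST, with cytotoxicity read by fluorescence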", "assay_type": "functional", "conditions": "Homo sapiens"}, "[14]": {"assay": "loss of viability in HepG2 cells – cell-based, CellTiter-Glo, cherry-picked, cytotoxicity control for Shn3 inhibitor project, dose response (AID 624134)", "assay_type": "functional"}, "[15]": {"assay": "blockade of melanocortin 4 receptor signaling – cell-based, plate reader, cherry pick, counter-screen for LGR2 antagonist project, dose response (AID 743444);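 note: transfected HEK 293 cells stimulated with alpha-MSH peptide; potency of inhibitors of the alpha-MSH evoked signal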", "assay_type": "functional"}, "[16]": {"assay": "A549 cell cytotoxicity, dose response, cytotoxicity control, plate reader, cherry-pick, antagonist series (AID 743412)", "assay_type": "functional, cell-based"}, "[17]": {"assay": "luciferase reporter signal suppression in cells – H4 neuroglioma cells, luminescence, dose response (AID 1990)", "assay_type": "functional, cell-based"}, "[18]": {"assay": "alpha-synuclein stem-loop translation blockers – luminescence, H4 neuroglioblastoma cells, dose confirmation, confirmation (AID 2454);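 note: potency for inhibition of the luciferase signal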", "assay_type": "functional, cell-based"}, "[19]": {"assay": "Luminescence Cell-Based Dose Response HTS to Identify Inhibitors of 5'UTR Stem-Loop Driven Prion Protein mRNA Translation in H4 Neuroglioblastoma Cells. [Related pubchem assays: 1827 (Project Summary), 1813 (Primary HTS)]", "assay_type": "functional"}, "[20]": {"assay": "blockers of bursicon-stimulated LGR2 cAMP reporter – cell-based, HEK293, CRE-luciferase reporter, cherry pick, set 2, dose response (AID 743343);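 note: transfected cells were stimulated with diluted bursicon conditioned medium after compound addition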", "assay_type": "functional"}, "HeLa": {"tested_on": "HeLa", "assay": "ATP-based viability loss in HeLa cells – cell-based, CellTiter-Glo luminescence, cherry-pick samples, cytotoxicity control for MITF activator project, dose response (AID 540259)", "assay_type": "functional", "conditions": "Homo sapiens"}, "[21]": {"assay": "Luminescence Cell-Based Dose Response to Identify Activators of Luciferase Translation or Activity in H4-C Neuroglioblastoma Cells. [Related pubchem assays: 1829 (Project Summary), 1814 (Primary HTS)]", "assay_type": "functional"}, "[22]": {"assay": "Luminescence Cell-Based Dose Response to Identify Activators of 5'UTR Stem-Loop Driven Prion Protein mRNA Translation in H4-C Neuroglioblastoma Cells. [Related pubchem assays: 1829 (Project Summary), 1814 (Primary HTS)]", "assay_type": "functional"}, "[23]": {"assay": "Luminescence Cell-Based Dose Response HTS to Identify Activators of Luciferase Translation or Activity in H4 […] Cells. [Related pubchem assays: 1829 (Project Summary), 1814 (Primary HTS)]", "assay_type": "functional"}, "[24]": {"assay": "Luminescence Cell-Based Dose Confirmation to Identify Activators of 5'UTR Stem-Loop Driven Alpha-Synuclein mRNA Translation in H4 Neuroglioblastoma Cells. [Related pubchem assays: 1829 (Project Summary), 1814 (Primary HTS)]", "assay_type": "functional"}, "H4": {"tested_on": "H4", "assay": "Luminescence Cell-Based Dose Response HTS to Identify Activators of 5'UTR Stem-Loop Driven Prion Protein mRNA Translation in H4 Neuroglioblastoma Cells. [Related pubchem assays: 1829 (Project Summary), 1814 (Primary HTS)]", "assay_type": "functional", "conditions": "Homo sapiens"}}, "note": "The source made the active and inactive calls."}
{"smiles": "CC1=NN(C(=O)Cn2ccc([N+](=O)[O-])n2)C(O)(C(F)(F)F)C1", "note": "(stereo not given)", "values": [{"measurement": "EC50", "setting": "[1]", "value": "> 79.4 µM (not active)"}, {"measurement": "EC50", "setting": "[2]", "value": "> 79.4 µM (not active)"}, {"measurement": "EC50", "setting": "[3]", "value": "> 79.4 µM (not active)"}]}
{"smiles": "c1ccc(-c2cnc(-c3ccccc3)nc2)cc1", "values": [{"measurement": "EC50", "setting": "[4]", "value": "14.3 µM (active)"}, {"measurement": "EC50", "setting": "HT-1080", "value": "> 50 µM (not active)"}]}
{"smiles": "COc1cccc(-c2ccc(C#N)c(SCC(=O)NCCc3ccc(Cl)cc3)n2)c1", "values": [{"measurement": "IC50", "setting": "[5]", "value": "4.58 µM (active)"}, {"measurement": "IC50", "setting": "[6]", "value": "6.45 µM (active)"}]}
{"smiles": "CCOc1ccc(OCc2cccc(C(=O)O)c2)cc1", "values": [{"measurement": "IC50", "setting": "Leucine aminopeptidase", "value": "24.8 µM (active)"}, {"measurement": "EC50", "setting": "[7]", "value": "0.072 µM (active)"}, {"measurement": "EC50", "setting": "[8]", "value": "< 0.1 µM (active)"}, {"measurement": "EC50", "setting": "cells", "value": "0.101 µM (active)"}, {"measurement": "AC50", "setting": "[9]", "value": "18.9 µM (active)"}, {"measurement": "AC50", "setting": "[10]", "value": "31 µM (active)"}, {"measurement": "AC50", "setting": "[11]", "value": "21.4 µM (active)"}, {"measurement": "AC50", "setting": "[12]", "value": "0.649 µM (active)"}, {"measurement": "EC50", "setting": "[13]", "value": "< 0.16 µM (active)"}, {"measurement": "EC50", "setting": "BJ", "value": "> 133 µM (inactive)"}, {"measurement": "AC50", "setting": "[14]", "value": "16.9 µM (active)"}, {"measurement": "AC50", "setting": "[15]", "value": "0.137 µM (active)"}, {"measurement": "AC50", "setting": "[16]", "value": "21.7 µM (active)"}, {"measurement": "EC50", "setting": "[17]", "value": "< 0.1 µM (active)"}, {"measurement": "EC50", "setting": "[18]", "value": "0.038 µM (active)"}, {"measurement": "EC50", "setting": "[19]", "value": "< 0.1 µM (active)"}, {"measurement": "AC50", "setting": "[20]", "value": "0.118 µM (active)"}]}
{"smiles": "FC(F)Oc1ccc(/N=C2\\SCC3CCCCN23)cc1", "note": "(stereo not given)", "values": [{"measurement": "AC50", "setting": "HeLa", "value": "342 µM (active)"}, {"measurement": "EC50", "setting": "[21]", "value": "0.34 µM (active)"}, {"measurement": "EC50", "setting": "[22]", "value": "1.04 µM (active)"}, {"measurement": "EC50", "setting": "[23]", "value": "< 0.1 µM (active)"}, {"measurement": "EC50", "setting": "[24]", "value": "0.405 µM (active)"}, {"measurement": "EC50", "setting": "H4", "value": "30.2 µM (inconclusive)"}]}
